Experiment: Determination of total drug concentration in rat brain (BBB penetration)
Assay type: in vivo
Conditions: male SD rat, 2 mg/kg IV infusion for 4 hours, brain collected at end of 4 hours
Experimental: BB. Example 9: Determination of Total Drug Concentration in Rat Brain
In Vivo Experimental Procedures
Infuse male SD rat at 2 mg/kg dose for 4 hours through IV administration route. Collect brain tissues at the end of 4 hours.
Sample Preparation Procedures
Dilute brain tissue by adding homogenization solvent (1:4, w/v). Homogenize diluted brain tissue samples. Extract analyte by adding organic solvent (1:4, v/v) with spiked internal standard. Vortex and centrifuge the samples. Remove supernatant and dilute with HPLC compatible solvent (1:3, v/v).
Inject diluted extract into LC-MS/MS system using reversed phase high performance liquid chromatography coupled with electrospray ionization and selected reaction monitoring. Determine the total drug concentration in brain samples by quantitating against the standard curve prepared using the same matrix.
The following data provides blood brain barrier (BBB) penetration activity for a selection of inventive compounds where were directly compared to sotorasib and adagrasib (concentration in brain measured in ng/g).
Compounds that were measured as having a total concentration in the brain of at least 60 ng/g are indicated as “+”.

Row | Structure (SMILES) | BBB activity
1 | C=CC(=O)N1CCN(c2nc(=O)n3c4c(c(-c5cc(Cl)c(F)cc5F)c(C(F)(F)F)cc24)SC[C@@H]3COC)CC1 [Example 13-5] | + (Compounds that were measured as having a total concentration in the brain of at least 60 ng/g are indicated as “+”)
2 | C=C(F)C(=O)N1[C@H](C)CN(c2nc(=O)n3c4c(c(-c5ccc(F)cc5)c(C(F)(F)F)cc24)SC[C@@H](OC)C3)C[C@@H]1C [Example 13-9] | + (Compounds that were measured as having a total concentration in the brain of at least 60 ng/g are indicated as “+”)
3 | C=CC(=O)N1[C@H](C)CN(c2nc(=O)n3c4c(c(-c5ccc(F)cc5)c(C(F)(F)F)cc24)SC[C@@H]3COC)C[C@@H]1C [Example 13-10] | + (Compounds that were measured as having a total concentration in the brain of at least 60 ng/g are indicated as “+”)
4 | C=CC(=O)N1[C@H](C)CN(c2nc(=O)n3c4c(c(-c5ccc(F)cc5F)c(C(F)(F)F)cc24)SC[C@@H]3COC)C[C@@H]1C [Example 13-13] | + (Compounds that were measured as having a total concentration in the brain of at least 60 ng/g are indicated as “+”)
5 | C=CC(=O)N1CCN(c2nc(=O)n3c4c(c(-c5ccc(F)cc5F)c(C(F)(F)F)cc24)SC[C@@H]3COC)CC1 [Example 13-14] | + (Compounds that were measured as having a total concentration in the brain of at least 60 ng/g are indicated as “+”)
6 | C=CC(=O)N1CCN(c2nc(=O)n3c4c(c(-c5c(C)cc(F)cc5F)c(C(F)(F)F)cc24)SC[C@@H]3COC)CC1 [Example 13-16] | + (Compounds that were measured as having a total concentration in the brain of at least 60 ng/g are indicated as “+”)
7 | C=CC(=O)N1C[C@H](C)N(c2nc(=O)n3c4c(c(-c5ccc(F)cc5F)c(Cl)cc24)SCC3)C[C@H]1C [Example 13-18] | + (Compounds that were measured as having a total concentration in the brain of at least 60 ng/g are indicated as “+”)
8 | C=CC(=O)N1[C@H](C)CN(c2nc(=O)n3c4c(c(-c5cc(I)c(F)cc5F)c(C(F)(F)F)cc24)SC[C@@H]3COC)C[C@@H]1C [Example 13-19] | + (Compounds that were measured as having a total concentration in the brain of at least 60 ng/g are indicated as “+”)
9 | C=CC(=O)N1[C@H](C)CN(c2nc(=O)n3c4c(c(-c5ccccc5)c(C(F)(F)F)cc24)SC[C@@H]3COC)C[C@@H]1C [Example 13-20] | + (Compounds that were measured as having a total concentration in the brain of at least 60 ng/g are indicated as “+”)
10 | C=CC(=O)N1CCN(c2nc(=O)n3c4c(c(-c5ccc(F)cc5F)c(C(F)(F)F)cc24)SCC3)[C@@H](C)C1 [Example 13-21] | + (Compounds that were measured as having a total concentration in the brain of at least 60 ng/g are indicated as “+”)
11 | C=CC(=O)N1[C@H](C)CN(c2nc(=O)n3c4c(c(-c5ccc(F)cc5)c(C(F)(F)F)cc24)SC[C@@H]3CN2CCN(C3CC3)CC2)C[C@@H]1C [Example 13-22] | + (Compounds that were measured as having a total concentration in the brain of at least 60 ng/g are indicated as “+”)
12 | C=CC(=O)N1C[C@H](C)N(c2nc(=O)n3c4c(c(-c5cc(Br)c(F)cc5F)c(C(F)(F)F)cc24)SCC2(COC2)C3)C[C@H]1C [Example 13-23] | + (Compounds that were measured as having a total concentration in the brain of at least 60 ng/g are indicated as “+”)
13 | C=CC(=O)N1[C@H](C)CN(c2nc(=O)n3c4c(c(-c5cc(Cl)c(F)cc5F)c(C(F)(F)F)cc24)SC[C@@H](OC)C3)C[C@@H]1C [Example 13-24] | + (Compounds that were measured as having a total concentration in the brain of at least 60 ng/g are indicated as “+”)
14 | C=CC(=O)N1CCN(c2nc(=O)n3c4c(c(-c5ccc(F)c(Cl)c5)c(C(F)(F)F)cc24)SC[C@@H](OC)C3)CC1 [Example 13-25] | + (Compounds that were measured as having a total concentration in the brain of at least 60 ng/g are indicated as “+”)
15 | C=CC(=O)N1[C@H](C)CN(c2nc(=O)n3c4c(c(-c5ccc(F)cc5F)c(C(F)(F)F)cc24)SC[C@@H]3CN2CCN(C3CC3)CC2)C[C@@H]1C [Example 13-26] | + (Compounds that were measured as having a total concentration in the brain of at least 60 ng/g are indicated as “+”)
16 | C=CC(=O)N1CCN(c2nc(=O)n3c4c(c(-c5cc(Cl)c(F)cc5F)c(Cl)cc24)SC[C@@H]3CN2CCN(C3CC3)CC2)[C@@H](C)C1 [Example 13-27] | + (Compounds that were measured as having a total concentration in the brain of at least 60 ng/g are indicated as “+”)
17 | C=CC(=O)N1[C@H](C)CN(c2nc(=O)n3c4c(c(-c5cc(Cl)c(F)cc5F)c(C(F)(F)F)cc24)SC[C@@H]3CN2CCN(C3CC3)CC2)C[C@@H]1C [Example 13-28] | + (Compounds that were measured as having a total concentration in the brain of at least 60 ng/g are indicated as “+”)

Row | Structure (SMILES) | BBB activity
18 | C=CC(=O)N1C[C@H](C)N(c2nc(=O)n3c4c(c(-c5ccc(F)cc5F)c(C(F)(F)F)cc24)SC[C@@H]3CN2CCN(C3CC3)CC2)C[C@H]1C [Example 13-29] | + (Compounds that were measured as having a total concentration in the brain of at least 60 ng/g are indicated as “+”)
19 | C=CC(=O)N1CCN(c2nc(=O)n3c4c(c(-c5cc(Cl)c(F)cc5F)c(C(F)(F)F)cc24)SC[C@@H]3CN2CCN(C3CC3)CC2)CC1 [Example 13-30] | + (Compounds that were measured as having a total concentration in the brain of at least 60 ng/g are indicated as “+”)
20 | C=CC(=O)N1C[C@H](C)N(c2nc(=O)n3c4c(c(-c5cc(Cl)c(F)cc5F)c(C(F)(F)F)cc24)SCC2(COC2)C3)C[C@H]1C [Example 13-31] | + (Compounds that were measured as having a total concentration in the brain of at least 60 ng/g are indicated as “+”)
21 | C=CC(=O)N1CC2C(=O)N(C)c3cnc4c(F)c(-c5c(O)cccc5F)c(Cl)cc4c3N2C[C@H]1C (stereo partly shown) [Example 13-32] | + (Compounds that were measured as having a total concentration in the brain of at least 60 ng/g are indicated as “+”)
22 | C=CC(=O)N1CCN(c2nc(=O)n3c4c(c(-c5ccc(F)cc5)c(C(F)(F)F)cc24)SC[C@@H]3CN2CCN(C3CC3)CC2)CC1 [Example 13-33] | + (Compounds that were measured as having a total concentration in the brain of at least 60 ng/g are indicated as “+”)
23 | C=CC(=O)N1C[C@H](C)N(c2nc(=O)n3c4c(c(-c5cc(Cl)c(F)cc5F)c(C(F)(F)F)cc24)SCC2(CCOCC2)C3)C[C@H]1C [Example 13-34] | + (Compounds that were measured as having a total concentration in the brain of at least 60 ng/g are indicated as “+”)
24 | C=CC(=O)N1CCN(c2nc(=O)n3c4c(c(-c5ccc(F)cc5F)c(C(F)(F)F)cc24)SC[C@@H]3COC)[C@@H](C)C1 [Example 13-35] | + (Compounds that were measured as having a total concentration in the brain of at least 60 ng/g are indicated as “+”)
25 | C=CC(=O)N1[C@H](C)CN(c2nc(=O)n3c4c(c(-c5cc(Br)c(F)cc5F)c(C(F)(F)F)cc24)SCC2(COC2)C3)C[C@@H]1C [Example 13-36] | + (Compounds that were measured as having a total concentration in the brain of at least 60 ng/g are indicated as “+”)
26 | C=CC(=O)N1CCN(c2nc(=O)n3c4c(c(-c5ccc(F)cc5F)c(C(F)(F)F)cc24)SC[C@H](OC)C3)CC1 [Example 13-37] | + (Compounds that were measured as having a total concentration in the brain of at least 60 ng/g are indicated as “+”)
27 | C=CC(=O)N1C[C@H](C)N(c2nc(=O)n3c4c(c(-c5ccc(F)cc5F)c(Cl)cc24)OCC3CN(C)C)C[C@H]1C (stereo partly shown) [Example 13-38] | + (Compounds that were measured as having a total concentration in the brain of at least 60 ng/g are indicated as “+”)
28 | C=CC(=O)N1[C@H](C)CN(c2nc(=O)n3c4c(c(-c5ccc(F)cc5)c(C(F)(F)F)cc24)SC[C@@H](OC)C3)C[C@@H]1C [Example 13-40] | + (Compounds that were measured as having a total concentration in the brain of at least 60 ng/g are indicated as “+”)
29 | C=CC(=O)N1[C@H](C)CN(c2nc(=O)n3c4c(c(-c5ccc(F)cc5)c(C(F)(F)F)cc24)SC[C@H](OCC)C3)C[C@@H]1C [Example 13-41] | + (Compounds that were measured as having a total concentration in the brain of at least 60 ng/g are indicated as “+”)
30 | C=CC(=O)N1[C@H](C)CN(c2nc(=O)n3c4c(c(-c5cc(Br)c(F)cc5F)c(C(F)(F)F)cc24)SC[C@@H](Oc2cnccn2)C3)C[C@@H]1C [Example 13-42] | + (Compounds that were measured as having a total concentration in the brain of at least 60 ng/g are indicated as “+”)
31 | C=CC(=O)N1CCN(c2nc(=O)n3c4c(c(-c5ccc(F)cc5F)c(Cl)cc24)SCC3)[C@@H](C)C1 [Example 13-43] | + (Compounds that were measured as having a total concentration in the brain of at least 60 ng/g are indicated as “+”)
32 | C=CC(=O)N1[C@H](C)CN(c2nc(=O)n3c4c(c(-c5cc(Cl)c(F)cc5F)c(C(F)(F)F)cc24)SC[C@@H]3CN2C[C@@H]3C[C@H]2CO3)C[C@@H]1C [Example 13-46] | + (Compounds that were measured as having a total concentration in the brain of at least 60 ng/g are indicated as “+”)
33 | C=CC(=O)N1[C@H](C)CN(c2nc(=O)n3c4c(c(-c5ccc(F)cc5)c(C(F)(F)F)cc24)SC[C@H](c2ccccc2)C3)C[C@@H]1C [Example 13-47] | − (Compounds that did not meet this threshold are indicated as “−”)
34 | C=CC(=O)N1[C@H](C)CN(c2nc(=O)n3c4c(c(-c5ccc(F)cc5)c(C(F)(F)F)cc24)SC[C@@H](OCC2CC2)C3)C[C@@H]1C [Example 13-48] | − (Compounds that did not meet this threshold are indicated as “−”)
